# Results from PubChem BioAssay (NCI).
# “And” between values parts separate entries of the source, which are not always exact repeats. Equal values may be shown once.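 Results reflect a 48-hour exposure of cells in 96-well plates to compound at five concentrations. GI50 is the concentration that inhibits growth by half. TGI is the concentration that stops growth completely.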
# What was measured:
# Assay in all cases: DTP human tumour cell line panel, 48 h
# [1] = tested on: EKVX NSCLC
# [2] = tested on: HCC-2998 colon
# [3] = tested on: HS 578T breast
# [4] = tested on: HT29 colon
# [5] = tested on: NCI-H226 lung
# [6] = tested on: NCI-H23 lung
# [7] = tested on: SF-268 CNS
# [8] = tested on: TK-10 renal
# [9] = tested on: UACC-257 melanoma
# [10] = tested on: UACC-62 melanoma
Structure (SMILES),GI50 [1],TGI [1],GI50 [2],TGI [2],GI50 [3],TGI [3],GI50 [4],TGI [4],GI50 [5],TGI [5],GI50 [6],TGI [6],GI50 [7],TGI [7],GI50 [8],TGI [8],GI50 [9],TGI [9],GI50 [10],TGI [10]
COc1ccc2c(O)c(/C=C3\N=Nc4ncccc43)oc2c1C[C@@H]1CCNC[C@H]1F,426 nM,2.56 µM,1670 nM,4.09 µM,1580 nM,5.78 µM,307 nM,2.09 µM,256 nM,3.55 µM,861 nM,3.51 µM,294 nM,1.39 µM,2.11 µM,5.91 µM,2820 nM,9.46 µM,1320 nM,3.79 µM
Cc1c2ccncc2c(C)c2c1sc1ccccc12,–,25.2 µM,–,25.9 µM,–,39.5 µM,–,22.6 µM,–,42.9 µM,–,25.2 µM,–,64.3 µM,–,48.9 µM,–,47.2 µM,–,18.6 µM
O=C1NC2(CCCCC2)C(=O)N1CCN(CCCl)CCCl,> 25000 nM,> 250 µM,> 25000 nM,> 250 µM,–,> 25 µM,> 25000 nM,> 250 µM,> 25000 nM,> 250 µM,24800 nM,–,> 25000 nM and 112000 nM,> 250 µM,–,> 25 µM,> 25000 nM,> 250 µM,> 25000 nM,> 25 µM and 242 µM
CC(=O)Nc1ccc(S(=O)(=O)N=S(C)C)cc1,–,> 100 µM,–,> 100 µM,–,> 100 µM,–,> 100 µM,–,> 100 µM,–,> 100 µM,–,> 100 µM,–,> 100 µM,–,> 100 µM,–,> 100 µM
COc1cc2c3c(n(CCCNCCCNCCN)c(=O)c2cc1OC)-c1cc2c(cc1C3=O)OCO2,> 100000 nM,> 100 µM,–,–,48700 nM,> 100 µM,20900 nM,95.2 µM,79400 nM,> 100 µM,24700 nM,78.7 µM,> 100000 nM,> 100 µM,53.7 µM,> 100 µM,> 100000 nM,> 100 µM,37100 nM,> 100 µM
COc1ccc(C(=O)c2cc3c(N)c(C(=O)Nc4cccc(Br)c4C)sc3nc2C)cc1,95.4 nM,> 100 µM,302 nM,> 100 µM,82 nM,> 100 µM,50.9 nM,> 100 µM,173 nM,> 100 µM,354 nM,> 100 µM,173 nM,> 100 µM,36.4 µM,> 100 µM,> 100000 nM,> 100 µM,45.6 nM,> 100 µM
COc1cc(-c2nc3ccccc3o2)cc(CN2CCCCC2)c1O,12300 nM,> 100 µM,4730 nM,22.4 µM,2370 nM,7.44 µM,–,–,1850 nM,4.32 µM,1540 nM,5.26 µM,5120 nM,> 100 µM,31.2 µM,> 85.8 µM,2060 nM,5.51 µM,1630 nM,3.2 µM
CCN(CC)c1ccc(-c2cc(-c3cc(OC)c(OC)c(OC)c3)nc(N3CCC(O)CC3)c2C#N)cc1,613 nM,> 100 µM,374 nM,2.13 µM,3940 nM,> 100 µM,277 nM,1.28 µM,756 nM,5.77 µM,870 nM,4.68 µM,988 nM,3.13 µM,1.1 µM,6.92 µM,–,–,264 nM,0.662 µM
NC(Cc1c[nH]c2ccc([N+](=O)[O-])cc12)C(=O)O (stereo unspecified),–,> 100 µM,–,–,–,> 100 µM,–,> 100 µM,–,> 100 µM,–,> 100 µM,–,> 100 µM,–,> 100 µM,–,> 100 µM,–,> 100 µM
COc1cc([N+](=O)[O-])c(S(=O)(=O)O)cc1-n1nc(C(=O)Nc2ccccc2)n[n+]1-c1cc(S(=O)(=O)[O-])c([N+](=O)[O-])cc1OC,–,> 100 µM,–,–,–,> 100 µM,–,> 100 µM,–,> 100 µM,–,> 100 µM,–,> 100 µM,–,> 100 µM,–,> 100 µM,–,> 100 µM
CCCc1nc(Cl)c(Cl)c(Cl)n1,–,43.7 µM,–,–,–,44.3 µM,–,> 100 µM,–,> 94.6 µM,–,> 100 µM,–,33.4 µM,–,> 100 µM,–,> 100 µM,–,> 100 µM
O=C(c1ccc([N+](=O)[O-])cc1)C(Br)C(Br)c1ccnc2ccccc12 (stereo unspecified),–,34.3 µM,–,–,–,> 27.2 µM,–,11.7 µM,–,33.6 µM,–,> 21.9 µM,–,45.2 µM,–,12.6 µM,–,14.6 µM,–,24.6 µM
CCCCOc1ccc(/C=N/Nc2cc(C)nc3ccc(Br)cc23)cc1,1630 nM,3.03 µM,2120 nM,3.73 µM,1990 nM,4.71 µM,1550 nM,2.97 µM,1830 nM,3.82 µM,1860 nM,3.76 µM,–,–,1.91 µM,3.31 µM,1660 nM,3.18 µM,1740 nM,3.26 µM
CC[C@H](C)[C@H](NC(=O)[C@H]1CCCCN1C)C(=O)N(C)[C@H](C[C@@H](OC(C)=O)c1cccc(C(=O)N[C@@H](Cc2ccccc2)C[C@H](C)C(=O)O)n1)C(C)C,4.93 nM and 2.5 nM,> 25 µM,5.51 nM and 2.5 nM,> 25 µM,2 nM and 2.5 nM,> 25 µM,1.68 nM,–,–,> 25 µM,3.56 nM and 2.5 nM,> 25 µM,4.35 nM and 2.5 nM,> 25 µM,–,> 25 µM,–,–,0.38 nM and 2.5 nM,> 25 µM
Cn1c(=O)c(Oc2ccc(F)cc2F)cc2cnc(N[C@@H]3CCOC3)nc21,–,–,> 25000 nM,> 25 µM,> 25000 nM,> 25 µM,> 25000 nM,> 25 µM,> 25000 nM,> 25 µM,> 25000 nM,> 25 µM,> 25000 nM,> 25 µM,> 25 µM,> 25 µM,> 25000 nM,> 25 µM,> 25000 nM,> 25 µM
COc1ccc(-c2cn(-c3ccc(OC)c(OC)c3)c(=O)[nH]2)cc1,> 100000 nM,> 100 µM,> 100000 nM,> 100 µM,> 100000 nM,> 100 µM,65100 nM,> 100 µM,> 100000 nM,> 100 µM,> 100000 nM,> 100 µM,> 100000 nM,> 100 µM,> 100 µM,> 100 µM,–,–,> 100000 nM,> 100 µM
